In PMC11356571, “The Comparative Metabolism of a Novel Hepatocellular Carcinoma Therapeutic Agent, 2,3-Diamino-N-(4-(benzo[d]thiazol-2-yl)phenyl)propanamide, in Human and Animal Hepatocytes” (Metabolites, 2024):

Tests used:
Type in all cases: in vitro ADME
CYP2B6 = target: T1, CYP2B6 (Homo sapiens, UniProt P20813); assay: Incubation with human cDNA-expressed CYP2B6; details: CYP2B6, 30 min at 37 °C with NADPH; ETN101 10 μM or M1 1 μM
T1 construct: purchased Cypex Ltd. (Dundee, UK)
T1 sequence (P20813 1-491): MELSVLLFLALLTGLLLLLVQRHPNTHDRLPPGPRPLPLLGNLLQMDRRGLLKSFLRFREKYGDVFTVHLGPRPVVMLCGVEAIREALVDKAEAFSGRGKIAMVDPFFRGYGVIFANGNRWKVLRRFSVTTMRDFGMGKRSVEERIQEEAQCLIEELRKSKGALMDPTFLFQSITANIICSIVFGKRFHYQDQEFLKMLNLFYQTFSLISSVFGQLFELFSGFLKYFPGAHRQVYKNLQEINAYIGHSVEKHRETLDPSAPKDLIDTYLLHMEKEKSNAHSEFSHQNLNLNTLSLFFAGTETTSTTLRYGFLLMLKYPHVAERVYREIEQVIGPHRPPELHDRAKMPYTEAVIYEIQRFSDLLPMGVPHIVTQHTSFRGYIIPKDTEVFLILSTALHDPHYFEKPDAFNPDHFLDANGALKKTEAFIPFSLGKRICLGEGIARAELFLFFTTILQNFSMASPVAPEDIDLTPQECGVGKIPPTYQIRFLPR
Protocol: (§1) ETN101 or M1 was incubated with nine human cDNA-expressed CYP enzymes (1A2, 2A6, 2B6, 2C8, 2C9, 2C19, 2D6, 2E1, and 3A4) to identify the CYPs involved in the metabolism of ETN101. Based on the preliminary study, the incubation conditions were determined as follows: Briefly, reaction mixtures of 50 μL containing ETN101 (final concentration: 10 μM) or M1 (final concentration: 1 μM), and CYPs (final amount: 5 pmol for CYP1A2, 2A6, 2C8, 2C9, 2C19, 2D6, and 3A4; 10 pmol for CYP2B6 and 2E1) were prepared in 0.1 M potassium phosphate buffer. The reaction was initiated by adding 50 μL of NADPH- regenerating system; the mixtures were incubated for 0 min or 30 min at 37 °C in triplicate. Reactions were terminated by the addition of 100 μL of ice-cold acetonitrile containing the IS (camptothecin, 200 ng/mL). Samples were centrifuged at 13,000 rpm for 5 min at 4 °C. An aliquot of 2 μL supernatant was injected in LC–MS/MS system.
(§2) For enzyme characterization, an Agilent 6460 triple quadrupole mass spectrometer coupled with a 1260 HPLC system (Agilent Technologies, Santa Clara, CA, USA) and a Kinetex Halo® C18 column (2.7 μm, 2.1 × 50 mm, Advanced Material Technology, Wilmington, DE, USA) were used for chromatographic separation. […] ETN101, M1, and M2 were detected via MRM using ESI in the positive mode. […]

CYP1A2 = target: T2, CYP1A2 (Homo sapiens, UniProt P05177); assay: Incubation with human cDNA-expressed CYP1A2; details: CYP1A2, 30 min at 37 °C with NADPH; ETN101 10 μM or M1 1 μM
T2 construct: purchased Cypex Ltd. (Dundee, UK)
T2 sequence (P05177 1-516): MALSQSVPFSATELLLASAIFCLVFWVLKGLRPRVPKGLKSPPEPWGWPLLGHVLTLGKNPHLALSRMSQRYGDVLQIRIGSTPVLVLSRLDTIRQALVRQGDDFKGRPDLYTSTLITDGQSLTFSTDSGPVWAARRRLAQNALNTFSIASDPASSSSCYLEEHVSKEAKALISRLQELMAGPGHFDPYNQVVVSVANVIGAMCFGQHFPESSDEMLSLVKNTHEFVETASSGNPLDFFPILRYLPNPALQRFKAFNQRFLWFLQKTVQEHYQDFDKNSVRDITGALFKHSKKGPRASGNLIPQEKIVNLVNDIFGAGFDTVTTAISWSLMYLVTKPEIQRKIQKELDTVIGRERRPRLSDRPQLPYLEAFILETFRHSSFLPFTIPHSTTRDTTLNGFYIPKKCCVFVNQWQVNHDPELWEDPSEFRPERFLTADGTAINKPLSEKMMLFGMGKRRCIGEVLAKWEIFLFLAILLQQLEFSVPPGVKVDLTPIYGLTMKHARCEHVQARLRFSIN
Protocol: as §1, §2

CYP2C8 = target: T3, CYP2C8 (Homo sapiens, UniProt P10632); assay: Incubation with human cDNA-expressed CYP2C8; details: CYP2C8, 30 min at 37 °C with NADPH; ETN101 10 μM or M1 1 μM
T3 construct: purchased Cypex Ltd. (Dundee, UK)
T3 sequence (P10632 1-490): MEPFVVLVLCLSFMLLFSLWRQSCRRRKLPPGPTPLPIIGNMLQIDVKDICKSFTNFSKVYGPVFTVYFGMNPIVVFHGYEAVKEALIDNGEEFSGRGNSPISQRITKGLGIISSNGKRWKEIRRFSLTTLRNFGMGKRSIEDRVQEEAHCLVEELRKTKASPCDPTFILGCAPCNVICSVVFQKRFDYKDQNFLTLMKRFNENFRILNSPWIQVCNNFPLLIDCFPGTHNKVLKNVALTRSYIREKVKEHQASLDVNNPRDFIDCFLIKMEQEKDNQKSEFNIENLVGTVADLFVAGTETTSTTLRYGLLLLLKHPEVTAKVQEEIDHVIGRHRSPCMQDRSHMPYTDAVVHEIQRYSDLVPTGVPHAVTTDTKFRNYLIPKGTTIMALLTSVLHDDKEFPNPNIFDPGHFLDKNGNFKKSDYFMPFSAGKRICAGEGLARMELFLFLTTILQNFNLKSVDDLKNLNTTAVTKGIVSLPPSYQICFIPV
Protocol: as §1, §2

CYP2C19 = target: T4, CYP2C19 (Homo sapiens, UniProt P33261); assay: Incubation with human cDNA-expressed CYP2C19; details: CYP2C19, 30 min at 37 °C with NADPH; ETN101 10 μM or M1 1 μM
T4 construct: purchased Cypex Ltd. (Dundee, UK)
Protocol: as §1, §2

T4 sequence (P33261 whole entry): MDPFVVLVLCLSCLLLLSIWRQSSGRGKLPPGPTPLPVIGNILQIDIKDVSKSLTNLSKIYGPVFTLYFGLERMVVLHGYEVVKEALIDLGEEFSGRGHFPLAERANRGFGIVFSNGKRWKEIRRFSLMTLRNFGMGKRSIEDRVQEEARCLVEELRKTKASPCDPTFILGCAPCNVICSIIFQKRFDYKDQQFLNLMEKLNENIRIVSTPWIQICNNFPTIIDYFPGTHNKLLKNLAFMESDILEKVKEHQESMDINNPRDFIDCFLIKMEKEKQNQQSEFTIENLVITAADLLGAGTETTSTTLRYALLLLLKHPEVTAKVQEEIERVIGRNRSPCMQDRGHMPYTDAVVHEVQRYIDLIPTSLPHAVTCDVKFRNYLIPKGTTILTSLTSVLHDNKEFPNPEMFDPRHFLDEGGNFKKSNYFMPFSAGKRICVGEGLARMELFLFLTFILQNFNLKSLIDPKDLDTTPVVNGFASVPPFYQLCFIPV

SMILES | Percentage remaining (CYP2B6) [%] | Percentage remaining (CYP1A2) [%] | Percentage remaining (CYP2C8) [%] | Percentage remaining (CYP2C19) [%]
NCC(N)C(=O)Nc1ccc(-c2nc3ccccc3s2)cc1 (centres unmarked) [ETN101, 2,3-diamino-N-(4-(benzo[d]thiazol-2-yl)phenyl)propanamide] | 92.8 | 126.3 | 105.0 | 113.0
Nc1ccc(-c2nc3ccccc3s2)cc1 [M1, 2-(4-aminophenyl)benzothiazole] | 109.8 | 5.3 | 86.6 | 68.7
